Test results from patent US9145415B2, “Nitrogen-containing heterocyclic compound or salt thereof” (FUJIFILM Corporation, priority 2012, dated 2015).
Like-named read-outs stand apart in the source and are kept apart here.

Columns and labels:
MV4-11 cells = test: Leukemia cell proliferation inhibition test (ATPlite), MV4-11; format: cell-based; conditions: Homo sapiens, read-out: MV4-11 cell proliferation inhibition effect
Outline: (§1)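 Luminescent ATP read-out (firefly luciferase) used as a total cell count after 72 h compound exposure at 37° C, 5% CO2. Cells: 10,000/well in RPMI + 10% FBS. GI50 = 50% inhibition relative to 0.1% DMSO, from a sigmoid dose-response fit; duplicates.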

[1] = molecular target: T1, human FLT3 protein (FLT3 (WT)) (Homo sapiens, UniProt P36888); test: FLT3 inhibition test (FLT3 enzyme inhibition, time-resolved fluorescence of substrate peptide phosphorylation); format: biochemical; conditions: read-out: FLT3 (WT) enzyme inhibition activity
T1 construct: human FLT3 protein (intracellular region, 564 to 993 aa); GST; purchased Carna Biosciences; host or cells: baculovirus expression system
T1 sequence (P36888 564-993): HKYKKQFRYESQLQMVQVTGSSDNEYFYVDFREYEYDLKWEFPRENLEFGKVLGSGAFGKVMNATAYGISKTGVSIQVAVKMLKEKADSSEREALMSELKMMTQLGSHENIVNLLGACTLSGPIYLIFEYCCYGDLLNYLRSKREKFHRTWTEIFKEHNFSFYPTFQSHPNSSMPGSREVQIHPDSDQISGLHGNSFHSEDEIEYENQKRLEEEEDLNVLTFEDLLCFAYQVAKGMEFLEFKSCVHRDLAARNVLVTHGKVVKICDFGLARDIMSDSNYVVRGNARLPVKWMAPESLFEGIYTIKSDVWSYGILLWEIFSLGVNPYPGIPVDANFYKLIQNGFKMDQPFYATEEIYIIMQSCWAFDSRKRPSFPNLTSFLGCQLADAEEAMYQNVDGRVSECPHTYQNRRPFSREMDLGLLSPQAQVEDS
Outline: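 Wild-type human FLT3 (1.2 μg) pre-incubated with compound 15 min at 25° C in 100 mM HEPES pH 7.5, 10 mM MgCl2, 25 mM NaCl, 1 mM DTT. Reaction started with substrate peptide and ATP (final 50 μM), run 30 min at 25° C; phosphorylation read by time-resolved fluorescence.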

Molm-13 cells = test: Leukemia cell proliferation inhibition test (ATPlite), Molm-13; format: cell-based; conditions: Homo sapiens, read-out: MOLM13 cell proliferation inhibition effect
Outline: as §1

[2] = MV4-11, 72 h, MV4-11, 72 hours culture, ATPlite, GI50 per method
[3] = GST-fused human FLT3 (564 to 993 aa), ATP 50 μM
[4] = MOLM-13, 72 h, Molm-13, 72 hours culture, ATPlite, GI50 per method

SMILES | IC50 (MV4-11 cells; [2]) | IC50 [1, 3] | IC50 (Molm-13 cells; [4]) | IC50 (MV4-11 cells; MV4-11, MV4-11 cell) | IC50 ([1]; FLT3 (WT)) | IC50 (Molm-13 cells; MOLM-13, MOLM13 cell)
COCCCNc1nc(Nc2ccc3c(cnn3C)c2)ncc1C#CCCCNC(=O)[C@H](C)N(C)C(=O)/C=C/CN(C)C [Compound 10-55] | < 10 nM | < 10 nM | < 10 nM | – | – | –
CNc1nc(Nc2ccc(F)cc2)ncc1C#CCCCNC(=O)[C@@H]1C[C@@H](F)CN1C(=O)/C=C/CN(C)C [Compound 7-81, (2S,4R)-1-((E)-4-(Dimethylamino)-2-butenoyl)-4-fluoro-N-(5-(2-((4-fluorophenyl)amino)-4-(methylamino)pyrimidin-5-yl)-4-pentyn-1-yl)pyrrolidine-2-carboxamide] | < 10 nM | < 10 nM | < 10 nM | – | – | –
CNc1nc(Nc2ccc(F)cc2)ncc1C#CCCCNC(=O)[C@@H]1CCCN1C(=O)/C=C/CN(C)C [Compound 21-43] | – | – | – | < 10 nM | < 10 nM | < 10 nM
CCCNc1nc(NC)ncc1C#CCCCNC(=O)[C@H](C)N(C)C(=O)/C=C/CN(C)C [Compound 11-1, (S,E)-4-(dimethylamino)-N-methyl-N-(1-((5-(2-(methylamino)-4-(propylamino)pyrimidin-5-yl)-4-pentyn-1-yl)amino)-1-oxopropan-2-yl)-2-butenamide] | 10 to 100 nM | 10 to 100 nM | 10 to 100 nM | – | – | –
CCCNc1nc(Nc2cccc(F)c2)ncc1-c1cn(CCNC(=O)[C@H](C)N(C)C(=O)/C=C/CN(C)C)nn1 [Compound 17-2, (S,E)-4-(dimethylamino)-N-(1-((2-(4-(2-((3-fluorophenyl)amino)-4-(propylamino)pyrimidin-5-yl)-1H-1,2,3-triazol-1-yl)ethyl)amino)-1-oxopropan-2-yl)-N-methyl-2-butenamide] | < 10 nM | < 10 nM | < 10 nM | – | – | –
COCCCNc1nc(Nc2ccnc(F)c2)ncc1C#CCCCNC(=O)[C@H](C)N(C)C(=O)/C=C/CN(C)C [Compound 9-16] | < 10 nM | < 10 nM | < 10 nM | – | – | –
CCCNc1nc(Nc2ccc(C(N)=O)cc2)ncc1C#CCCCNC(=O)CNC(=O)/C=C/CN(C)C [Compound 7-2] | < 10 nM | < 10 nM | < 10 nM | – | – | –
CCCNc1nc(Nc2cccc(F)c2)ncc1C#C[C@H]1CCCC(NC(=O)[C@H](C)N(C)C(=O)/C=C/CN(C)C)C1 (stereo in doubt) [Compound 13-2, (E)-4-(dimethylamino)-N—((S)-1-(((1R,3S)-3-((2-((3-fluorophenyl)amino)-4-(propylamino)pyrimidin-5-yl)ethynyl)cyclohexyl)amino)-1-oxopropan-2-yl)-N-methyl-2-butenamide] | 10 to 100 nM | < 10 nM | 10 to 100 nM | – | – | –
CNc1ncc(C#C[C@H]2C[C@@H](NC(=O)[C@H](C)N(C)C(=O)/C=C/CN(C)C)C2)c(Nc2ccc(OC)cc2)n1 [Compound 13-21] | < 10 nM | < 10 nM | < 10 nM | – | – | –
CCCNc1nc(Nc2ccc(C(N)=O)cc2)ncc1-c1ccc(CCNC(=O)CNC(=O)/C=C/CN(C)C)cc1 [Compound 16-3] | 100 to 1000 nM | < 10 nM | 100 to 1000 nM | – | – | –
COc1ccc(Nc2nc(Nc3ccc(F)cc3)ncc2C#CCCCNC(=O)CN(C)C(=O)/C=C/CN(C)C)cc1 [Compound 10-19] | < 10 nM | < 10 nM | < 10 nM | – | – | –
CNc1ncc(C#C[C@@H]2CCC[C@H](NC(=O)[C@H](C)N(C)C(=O)/C=C/CN(C)C)C2)c(NCc2cccc(F)c2)n1 [Compound 21-44] | – | – | – | 10 to 100 nM | < 10 nM | 10 to 100 nM
CCCN(CCC)c1nc(Nc2ccc(F)cc2)ncc1C#CCCCNC(=O)CN(C)C(=O)/C=C/CN(C)C [Compound 10-22] | < 10 nM | < 10 nM | < 10 nM | – | – | –
CCCNc1nc(Nc2ccc(C#N)cc2)ncc1C#CCNC(=O)CCNC(=O)/C=C/CN(C)C [Compound 7-90] | 100 to 1000 nM | < 10 nM | 100 to 1000 nM | – | – | –
CCCNc1nc(NCCc2ccncc2)ncc1C(=O)Nc1cccc(NC(=O)[C@H](C)NC(=O)/C=C/CN(C)C)c1 [Compound 1-2, (S,E)-N-(3-(2-(4-(dimethylamino)-2-butenamido)propanamido)phenyl)-4-(propylamino)-2-((2-(pyridin-4-yl)ethyl)amino)pyrimidine-5-carboxamide] | < 10 nM | < 10 nM | 10 to 100 nM | – | – | –
CCCNc1nc(Nc2ccc3c(cnn3C)c2)ncc1C#CCCCNC(=O)[C@H](C)N(C)C(=O)/C=C/CN(C)C [Compound 21-6] | < 10 nM | < 10 nM | < 10 nM | – | – | –
CCCNc1nc(Nc2ccc(C#N)c(C)c2)ncc1C#CCCCNC(=O)[C@H](C)N(C)C(=O)/C=C/CN(C)C [Compound 21-3] | < 10 nM | < 10 nM | < 10 nM | – | – | –
C[C@@H](C(=O)NCCCC#Cc1cnc(Nc2ccc(C#N)cc2)nc1N1CCC(F)CC1)N(C)C(=O)/C=C/CN(C)C [Compound 10-41] | < 10 nM | < 10 nM | < 10 nM | – | – | –
CCCNc1nc(Nc2ccc(C#N)cc2)ncc1C#CCCCNC(=O)[C@@H]1C[C@H](OC)CN1C(=O)/C=C/CN(C)C [Compound 7-61] | < 10 nM | < 10 nM | < 10 nM | – | – | –
CC[C@@H](C(=O)NCCCC#Cc1cnc(Nc2ccc(F)nc2)nc1Nc1cccc(F)c1)N(C)C(=O)/C=C/CN(C)C [Compound 10-32] | < 10 nM | < 10 nM | < 10 nM | – | – | –
COc1ccc(Nc2nc(Nc3cccc(F)c3)ncc2C#CCCCNC(=O)[C@H](C)N(C)C(=O)/C=C/CN(C)C)cn1 [Compound 7-19] | < 10 nM | < 10 nM | < 10 nM | – | – | –
CCCNc1nc(NCCc2ccncc2)ncc1C(=O)NCCCNC(=O)CNC(=O)/C=C/CN(C)C [Compound 2-24] | 10 to 100 nM | < 10 nM | 10 to 100 nM | – | – | –
CNc1nc(Nc2cccc(C#N)c2)ncc1C#C[C@@H]1CCC[C@H](NC(=O)[C@H](C)N(C)C(=O)/C=C/CN(C)C)C1 [Compound 21-1, (E)-N—((S)-1-(((1S,3R)-3-((2-((3-cyanophenyl)amino)-4-(methylamino)pyrimidin-5-yl)ethynyl)cyclohexyl)amino)-1-oxopropan-2-yl)-4-(dimethylamino)-N-methyl-2-butenamide] | < 10 nM | < 10 nM | < 10 nM | – | – | –
C/C=C/C(=O)N(C)[C@@H](C)C(=O)Nc1cccc(NC(=O)c2cnc(Nc3ccc(C(N)=O)cc3)nc2NCCC)c1 [Compound 3-9] | 10 to 100 nM | < 10 nM | 10 to 100 nM | – | – | –
CCCNc1nc(Nc2ccc3cnccc3c2)ncc1C(=O)Nc1cccc(NC(=O)[C@H](C)N(C)C(=O)/C=C/CN(C)C)c1 [Compound 6-9, (S,E)-N-(3-(2-(4-(Dimethylamino)-N-methyl-2-butenamido)propanamido)phenyl)-2-(isoquinolin-6-ylamino)-4-(propylamino)pyrimidine-5-carboxamide] | < 10 nM | < 10 nM | < 10 nM | – | – | –
CNc1ncc(C#C[C@H]2C[C@@H](NC(=O)[C@H](C)N(C)C(=O)/C=C/CN(C)C)C2)c(Nc2ccc(OC)nc2)n1 [Compound 13-22] | < 10 nM | < 10 nM | < 10 nM | – | – | –
CC#CC(=O)N(C)[C@@H](C)C(=O)Nc1cccc(NC(=O)c2cnc(Nc3ccc(C(N)=O)cc3)nc2NCCC)c1 [Compound 3-11] | < 10 nM | < 10 nM | 10 to 100 nM | – | – | –
